Here are results for four compounds from patent USRE48461E1, “Modulation of androgen receptor expression” (Ionis Pharmaceuticals, Inc., priority 2012, dated 2021).

Common to all, as to format: cell-based, human
In one data set the test system is total AR mRNA. Briefly: Total (full-length) AR mRNA in C4-2B MR cells, free uptake. The note with it: 24 hrs; for Percent inhibition of full-length AR mRNA in C4-2B MR cells: free uptake. The method in brief:
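Cells grown in RPMI1640 with 10% FBS received antisense oligonucleotides at 0.04, 0.20, 1.00 and 5.00 μM in the medium by free uptake, no transfection agent. After 24 hrs, total AR mRNA quantified by real-time qPCR with primer probe set RTS3559.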

Data set [1] concerns TMPRSS2 mRNA. Briefly: TMPRSS2 mRNA levels in LMR20 cells. To be noted: for TMPRSS2 mRNA levels in LMR20 cells: with or without DHT/R1881; for TMPRSS2 mRNA levels (% baseline value) after treatment with DHT / TMPRSS2 mRNA levels (% baseline value) after treatment with R1881 / TMPRSS2 mRNA levels (% baseline value) of cells without AR agonist treatment: LMR20 cells; for TMPRSS2 mRNA levels (% baseline value) after treatment with DHT: DHT 10 nM 72 hrs; for TMPRSS2 mRNA levels (% baseline value) after treatment with R1881: R1881 10 nM 72 hrs; for TMPRSS2 mRNA levels (% baseline value) of cells without AR agonist treatment: no AR agonist. As to the method:
LMR20 cells were plated at 1,500 cells per well in phenol red-free medium with CSS.

The subject of data set [2] is prostate-specific antigen (PSA) mRNA. Briefly: Time-course PSA expression in C4-2B cells. Put shortly:
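C4-2B cells at 1,000/well in complete medium, treated with antisense oligonucleotide; ISIS 549148 as negative control. PSA and TMPRSS2 mRNA measured after 8, 24 and 48 h, given as percent inhibition relative to non-treated cells.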

The next data set has as its system LNCaP cells. Briefly: LNCaP cell proliferation (complete or CSS+DHT medium). The note with it: 5 days; for Proliferation (% untreated control) in LNCaP cells cultured in CSS + DHT medium: CSS + 1 nM DHT medium. The method in brief:
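Proliferation of LNCaP cells read after 5 days of treatment in complete medium or charcoal-stripped serum medium plus 1 nM DHT, using CellTiter 96 AQueous One (MTS) or CellTiter-Glo.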

The test system of the next data set is AR mRNA. Briefly: AR RNA expression in C4-2 cells (complete, CSS+DHT medium). The note with it: 48 hrs; for Percent expression of AR / AR expression: C4-2 cells; for Percent expression of AR: CSS + DHT medium. The protocol:
Cells were plated at 1,000 cells per well. […] After an incubation period of 48 hrs, RNA levels of AR, PSA and TMPRSS2 were measured.
Cells were plated at 2,000 cells per well and cultured in CSS media with 1 nM DHT. […] After an incubation period of 48 hrs, RNA levels of AR, PSA and TMPRSS2 were measured.

A further data set deals with AR V7 variant mRNA. Briefly: AR V7 variant RNA in VCaP cells. To be noted: 48 hrs.
The subject of another data set is PSA mRNA. Briefly: PSA expression in VCaP cells. The note with it: 48 hrs.
For data set [3], the system named is TMPRSS2 mRNA. Briefly: TMPRSS2 expression in VCaP cells. To be noted: 48 hrs.

Oligonucleotides are written 5' to 3', each unit as a sugar letter and its base; * is a phosphorothioate linkage, no mark a phosphodiester; rarer units and linkages stand in square brackets, end groups in braces. Plain capitals give the bases only. k = constrained ethyl (cEt); [5mC] = 5-methylcytosine; d = 2'-deoxy (DNA)

For “549372 (kA*kA*kG*dT*dT*dG*dT*dA*dG*dT*dA*dG*dT*k[5mC]*kG*k[5mC]) [compound 549372]”, the “Percent inhibition of full-length AR mRNA in C4-2B MR cells” value in the data set with total AR mRNA (0.04 μM) worked out at 35%; with total AR mRNA (0.20 μM), 47%; in the data set with total AR mRNA (1.00 μM), 88%; with total AR mRNA (5.00 μM) it was 91%.

As to “GTTGATTTAATGGTTG (all phosphorothioate, sugars by position not given here; further chemistry not fully specified) [ISIS 549458]”, in the data set on total AR mRNA (C4-2B MR cells, 0.04-5.00 μM free uptake), the “total AR transcript levels” value is reported as “reduced total AR transcript levels in a dose dependent manner more extensively than treatment with ISIS 554221”. Moreover, in the data set on TMPRSS2 mRNA [1], the “TMPRSS2 mRNA levels in LMR20 cells” value is “reduced PSA levels and TMPRSS2 more extensively than the LNA gapmer ISIS 554221 or MDV3100”.

Regarding `CNC(=O)c1ccc(N2C(=S)N(c3ccc(C#N)c(C(F)(F)F)c3)C(=O)C2(C)C)cc1F` [MDV3100, 4-(3-(4-cyano-3-(trifluoromethyl)phenyl)-5,5-dimethyl-4-oxo-2-thioxoimidazolidin-1-yl)-2-fluoro-N-methylbenzamide, reference compound], the “TMPRSS2 mRNA levels (% baseline value) after treatment with DHT” value in the data set on TMPRSS2 mRNA [1] (ASO 0.04 μM) came out at 134 % baseline value; in the data set with TMPRSS2 mRNA [1] (ASO 0.20 μM) it was 144 % baseline value; with TMPRSS2 mRNA [1] (ASO 1.0 μM) it was 132 % baseline value; in the data set on TMPRSS2 mRNA [1] (ASO 5.0 μM), 124 % baseline value. The figures for the “TMPRSS2 mRNA levels (% baseline value) after treatment with R1881” value with TMPRSS2 mRNA [1] (ASO 0.20 μM), in the data set on TMPRSS2 mRNA [1] (ASO 1.0 μM) and with TMPRSS2 mRNA [1] (ASO 5.0 μM) were 125 % baseline value, 133 % baseline value and 139 % baseline value, respectively. In addition, the “TMPRSS2 mRNA levels (% baseline value) of cells without AR agonist treatment” value in the data set with TMPRSS2 mRNA [1] (ASO 0.04 μM) was 101 % baseline value; in the data set on TMPRSS2 mRNA [1] (ASO 0.20 μM), 119 % baseline value; with TMPRSS2 mRNA [1] (ASO 1.0 μM) it was 119 % baseline value; in the data set with TMPRSS2 mRNA [1] (ASO 5.0 μM) it was 141 % baseline value. Further, the “TMPRSS2 mRNA levels in LMR20 cells” value with TMPRSS2 mRNA [1] is “did not reduce either PSA or TMPRSS2 mRNA levels”. Moreover, the “Percent inhibition of PSA expression compared to the control group in 8 hours” value is 0% in data set [2] (0.04 μM), 3% in data set [2] (0.2 μM), 23% in data set [2] (1 μM) and 33% in data set [2] (5.0 μM). Also, the “Percent inhibition of PSA expression compared to the control group in 24 hours” value in data set [2] (0.04 μM) turned out to be 24%; in data set [2] (0.2 μM), 24%; in data set [2] (1 μM), 53%; in data set [2] (5.0 μM) it was 65%. For the same compound, the “Percent inhibition of PSA expression compared to the control group in 48 hours” value in data set [2] (0.04 μM) was 5%; in data set [2] (0.2 μM) it was 5%; in data set [2] (1 μM) it was 32%; in data set [2] (5.0 μM), 63%. Moreover, the PSA expression result in data set [2] (time course) was “also reduced downstream gene expressions but not as potently as that with the ISIS oligonucleotides”. Moreover, the “Proliferation (% untreated control) in LNCaP cells cultured in CSS + DHT medium” value with LNCaP cells (0.04 μM) is listed as 112 % untreated control; in the data set on LNCaP cells (0.2 μM), 95 % untreated control; in the data set on LNCaP cells (1 μM), 74 % untreated control; with LNCaP cells (5.0 μM), 33 % untreated control. In the data set on LNCaP cells (complete medium or CSS+1 nM DHT), the “proliferation of LNCaP cells” value is “reduced proliferation of the cells in a dose dependent compared to the control”. Further, the “Proliferation (% untreated control) in LNCaP cells cultured in complete medium” value in the data set on LNCaP cells (0.04 μM) is recorded as 107 % untreated control; in the data set on LNCaP cells (0.2 μM) it was 88 % untreated control; in the data set on LNCaP cells (1 μM), 65 % untreated control; in the data set on LNCaP cells (5.0 μM), 45 % untreated control. The “Percent expression of AR” value in the data set on AR mRNA (0.04 μM) is reported as 101%; with AR mRNA (0.2 μM) it was 109%. Further, the AR expression entry with AR mRNA (CSS+DHT medium) and with AR mRNA (complete medium) was “increased AR expression in the cells” throughout. The “Percent expression of AR in C4-2 cells cultured in complete medium” value in the data set with AR mRNA (complete medium, 0.04 μM) was found to be 95%; with AR mRNA (complete medium, 0.2 μM), 99%; with AR mRNA (complete medium, 1 μM) it was 132%; in the data set on AR mRNA (complete medium, 5.0 μM) it was 137%. Further, the “Percent of gene expression, AR V7 variant” value is recorded as 82% in the data set on AR V7 variant mRNA (CSS + DHT medium, 0.04 μM); 65% in the data set on AR V7 variant mRNA (CSS + DHT medium, 0.2 μM); 101% in the data set on AR V7 variant mRNA (CSS + DHT medium, 1.0 μM); 181% in the data set with AR V7 variant mRNA (CSS + DHT medium, 5.0 μM); 172% in the data set on AR V7 variant mRNA (complete medium, 0.04 μM); 179% with AR V7 variant mRNA (complete medium, 0.2 μM). Moreover, the “Percent of gene expression, AR V7 variant” value with AR V7 variant mRNA (complete medium, 1.0 μM) was found to be 244%; in the data set with AR V7 variant mRNA (complete medium, 5.0 μM), 237%. Moreover, the “Percent of gene expression, PSA” value in the data set on PSA mRNA (CSS + DHT medium, 0.04 μM) was 90%; in the data set on PSA mRNA (CSS + DHT medium, 0.2 μM), 72%; in the data set with PSA mRNA (CSS + DHT medium, 1.0 μM), 57%; in the data set on PSA mRNA (CSS + DHT medium, 5.0 μM) it was 30%; in the data set with PSA mRNA (complete medium, 0.04 μM) it was 105%; in the data set on PSA mRNA (complete medium, 0.2 μM) it was 76%. Moreover, the “Percent of gene expression, PSA” value is 75% in the data set on PSA mRNA (complete medium, 1.0 μM) and 61% with PSA mRNA (complete medium, 5.0 μM). Further, the “Percent of gene expression, TMPRSS2” value in the data set with TMPRSS2 mRNA [3] (CSS + DHT medium, 0.04 μM) worked out at 115%; in the data set with TMPRSS2 mRNA [3] (CSS + DHT medium, 0.2 μM), 96%; in the data set on TMPRSS2 mRNA [3] (CSS + DHT medium, 1.0 μM), 70%; in the data set on TMPRSS2 mRNA [3] (CSS + DHT medium, 5.0 μM), 42%; in the data set with TMPRSS2 mRNA [3] (complete medium, 0.04 μM) it was 131%; in the data set on TMPRSS2 mRNA [3] (complete medium, 0.2 μM) it was 121%. In addition, the “Percent of gene expression, TMPRSS2” value in the data set with TMPRSS2 mRNA [3] (complete medium, 5.0 μM) is 141%.

On to “549458 (kG*kT*kT*dG*dA*dT*dT*dT*dA*dA*dT*dG*dG*kT*kT*kG) [compound 549458]”, for which the “Percent inhibition of full-length AR mRNA in C4-2B MR cells” value is given as 41% with total AR mRNA (0.04 μM), 78% with total AR mRNA (0.20 μM), 94% in the data set on total AR mRNA (1.00 μM) and 97% in the data set on total AR mRNA (5.00 μM). Besides, the “TMPRSS2 mRNA levels (% baseline value) after treatment with DHT” value in the data set on TMPRSS2 mRNA [1] (ASO 0.04 μM) turned out to be 127 % baseline value; with TMPRSS2 mRNA [1] (ASO 0.20 μM), 119 % baseline value; in the data set on TMPRSS2 mRNA [1] (ASO 1.0 μM), 106 % baseline value; in the data set with TMPRSS2 mRNA [1] (ASO 5.0 μM) it was 91 % baseline value. In addition, the “TMPRSS2 mRNA levels (% baseline value) after treatment with R1881” value in the data set with TMPRSS2 mRNA [1] (ASO 0.04 μM) is 137 % baseline value; in the data set with TMPRSS2 mRNA [1] (ASO 0.20 μM) it was 119 % baseline value; in the data set on TMPRSS2 mRNA [1] (ASO 1.0 μM), 96 % baseline value; with TMPRSS2 mRNA [1] (ASO 5.0 μM), 96 % baseline value. The “TMPRSS2 mRNA levels (% baseline value) of cells without AR agonist treatment” value in the data set on TMPRSS2 mRNA [1] (ASO 0.04 μM) came to 110 % baseline value; in the data set on TMPRSS2 mRNA [1] (ASO 0.20 μM) it was 85 % baseline value; in the data set on TMPRSS2 mRNA [1] (ASO 1.0 μM), 54 % baseline value; with TMPRSS2 mRNA [1] (ASO 5.0 μM) it was 62 % baseline value.
